Assay results as given in ChEMBL document CHEMBL5729469, “Compounds for treating ILK-mediated diseases” (2022).

Target: Epidermal growth factor receptor (Homo sapiens, UniProt P00533)
Experiment: Biochemical Assay: Thus, while these compounds were extensively used in studying ILK-mediated cellular and disease processes, their reported inhibitory effects are probably due to unknown artifacts or indirect binding events. Next, we turned our attention to previously reported studies on kinase profiling and quantitative chemical proteomics. These studies suggested that a widely known lung …

Sequence of Epidermal growth factor receptor (P00533 whole entry): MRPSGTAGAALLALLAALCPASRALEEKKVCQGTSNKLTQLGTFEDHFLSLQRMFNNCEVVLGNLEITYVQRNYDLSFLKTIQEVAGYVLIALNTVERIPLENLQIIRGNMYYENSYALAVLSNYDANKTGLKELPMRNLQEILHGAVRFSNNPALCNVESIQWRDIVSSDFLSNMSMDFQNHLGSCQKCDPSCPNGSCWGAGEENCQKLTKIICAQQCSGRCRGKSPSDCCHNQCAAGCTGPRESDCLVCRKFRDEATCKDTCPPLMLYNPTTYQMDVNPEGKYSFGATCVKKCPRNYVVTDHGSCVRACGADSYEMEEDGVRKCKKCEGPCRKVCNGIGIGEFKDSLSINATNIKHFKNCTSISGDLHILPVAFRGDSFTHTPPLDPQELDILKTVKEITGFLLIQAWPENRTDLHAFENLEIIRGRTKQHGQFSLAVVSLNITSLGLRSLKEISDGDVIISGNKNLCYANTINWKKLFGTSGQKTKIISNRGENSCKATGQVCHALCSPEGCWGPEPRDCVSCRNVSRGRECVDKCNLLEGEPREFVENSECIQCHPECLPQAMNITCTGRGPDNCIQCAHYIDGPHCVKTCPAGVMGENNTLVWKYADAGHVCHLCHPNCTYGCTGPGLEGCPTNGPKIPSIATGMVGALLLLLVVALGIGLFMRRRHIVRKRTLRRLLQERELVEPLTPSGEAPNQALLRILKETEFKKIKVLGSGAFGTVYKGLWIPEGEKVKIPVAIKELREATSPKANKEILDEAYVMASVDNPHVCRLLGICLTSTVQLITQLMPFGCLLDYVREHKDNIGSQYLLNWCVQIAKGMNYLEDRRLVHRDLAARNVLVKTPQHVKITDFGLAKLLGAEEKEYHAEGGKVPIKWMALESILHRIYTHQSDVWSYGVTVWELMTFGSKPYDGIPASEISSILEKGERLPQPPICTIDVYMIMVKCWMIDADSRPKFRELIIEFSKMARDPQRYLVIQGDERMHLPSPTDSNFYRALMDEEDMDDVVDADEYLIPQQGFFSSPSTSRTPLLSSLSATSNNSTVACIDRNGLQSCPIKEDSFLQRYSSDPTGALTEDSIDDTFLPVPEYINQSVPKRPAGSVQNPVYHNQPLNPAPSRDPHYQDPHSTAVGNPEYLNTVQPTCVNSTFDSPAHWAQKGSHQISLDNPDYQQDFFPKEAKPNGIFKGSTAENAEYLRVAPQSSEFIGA

Kd	Structure (SMILES)
17700 nM	C#Cc1cc(Nc2ncnc3cc(OCCOC)ccc23)cc(OCCOCC)c1
1150 nM	C#Cc1cc(C#C)cc(Nc2ncnc3cc(OC)c(OC)cc23)c1
745 nM	C#Cc1cc(Nc2ncnc3cc(OCCOC)c(OCCOC)cc23)ccc1C
